In ChEMBL document CHEMBL1201862, “PubChem BioAssay data set” (2004):
Calls of active or inactive are those of the source.

What was measured:
Aminopeptidase N = target: T1, Aminopeptidase N (Plasmodium falciparum FcB1/Columbia, UniProt O96935); assay: malaria alanyl aminopeptidase activity blockers – biochemical, fluorogenic H-Leu-NHMec substrate, 1536-well (AID 1445); set-up: species or system Plasmodium falciparum 3D7, 3D7
T1 sequence (O96935 whole entry): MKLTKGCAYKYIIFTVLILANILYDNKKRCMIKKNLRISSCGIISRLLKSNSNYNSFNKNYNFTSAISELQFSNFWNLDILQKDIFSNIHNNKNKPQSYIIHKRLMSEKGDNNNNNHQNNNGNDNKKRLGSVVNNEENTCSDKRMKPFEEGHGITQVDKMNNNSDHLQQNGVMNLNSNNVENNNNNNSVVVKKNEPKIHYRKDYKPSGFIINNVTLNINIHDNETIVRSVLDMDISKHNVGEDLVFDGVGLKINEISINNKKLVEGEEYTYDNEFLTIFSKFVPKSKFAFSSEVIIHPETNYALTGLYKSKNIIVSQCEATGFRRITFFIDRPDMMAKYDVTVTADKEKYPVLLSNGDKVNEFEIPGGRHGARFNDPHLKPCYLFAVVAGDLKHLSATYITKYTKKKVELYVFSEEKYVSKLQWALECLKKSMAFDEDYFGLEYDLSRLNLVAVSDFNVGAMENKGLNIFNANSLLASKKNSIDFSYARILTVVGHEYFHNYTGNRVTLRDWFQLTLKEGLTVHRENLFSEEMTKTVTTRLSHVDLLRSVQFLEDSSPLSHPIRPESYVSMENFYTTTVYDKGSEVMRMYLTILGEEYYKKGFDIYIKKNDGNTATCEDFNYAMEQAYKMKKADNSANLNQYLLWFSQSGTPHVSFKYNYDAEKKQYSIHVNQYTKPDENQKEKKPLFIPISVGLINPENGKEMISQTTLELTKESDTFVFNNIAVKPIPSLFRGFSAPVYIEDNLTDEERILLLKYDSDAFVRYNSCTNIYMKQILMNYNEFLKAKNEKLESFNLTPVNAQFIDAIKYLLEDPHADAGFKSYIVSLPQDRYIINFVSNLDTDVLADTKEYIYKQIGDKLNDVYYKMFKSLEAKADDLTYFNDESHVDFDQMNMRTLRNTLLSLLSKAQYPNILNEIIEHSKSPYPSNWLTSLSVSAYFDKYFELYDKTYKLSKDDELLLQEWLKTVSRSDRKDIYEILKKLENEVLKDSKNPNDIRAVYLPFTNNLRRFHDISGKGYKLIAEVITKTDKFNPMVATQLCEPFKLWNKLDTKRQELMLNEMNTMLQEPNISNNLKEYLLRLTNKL

[1] = target: Serine/threonine-protein phosphatase PP1-alpha catalytic subunit (Homo sapiens, UniProt P62136); assay: inhibition of protein phosphatase 1 activity – biochemical, fluorescence, dose response (AID 2403);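 note: phosphatase turnover of OMFP into fluorescent 3-O-methylfluorescein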
[2] = target: T2, Serine/threonine-protein phosphatase (Homo sapiens, UniProt Q9BPW0); assay: Counterscreen for inhibitors of PP1: fluorescence-based biochemical high throughput dose response assay to identify inhibitors of Protein Phosphatase 5 (PP5). [Related pubchem assays: 2034 (Summary (PP5 inhibitors)), 1987 (PP5 inhibitors in singlate), 2235 (PP1 inhibitors in singlate)]
T2 sequence (Q9BPW0 whole entry): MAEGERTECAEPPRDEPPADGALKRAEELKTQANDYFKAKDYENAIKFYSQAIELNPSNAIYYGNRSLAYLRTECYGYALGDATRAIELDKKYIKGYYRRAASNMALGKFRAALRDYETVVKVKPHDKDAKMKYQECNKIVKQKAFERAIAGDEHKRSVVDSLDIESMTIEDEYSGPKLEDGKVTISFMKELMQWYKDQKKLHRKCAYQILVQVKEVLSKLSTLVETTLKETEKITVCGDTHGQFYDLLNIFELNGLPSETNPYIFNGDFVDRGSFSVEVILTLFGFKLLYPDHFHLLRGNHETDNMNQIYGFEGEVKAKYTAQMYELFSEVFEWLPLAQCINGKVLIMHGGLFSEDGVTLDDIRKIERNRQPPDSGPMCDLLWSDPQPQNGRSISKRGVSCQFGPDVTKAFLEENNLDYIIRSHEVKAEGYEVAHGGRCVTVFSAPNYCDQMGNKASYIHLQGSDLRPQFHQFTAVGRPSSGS

[3] = target: Endoplasmic reticulum aminopeptidase 1 (Homo sapiens, UniProt Q9NZ08); assay: inhibition of human ERAP1 enzyme activity – biochemical, cherry-pick, set 2, plate reader, dose response (AID 743314)
[4] = inhibitors of TRPM1-promoter reporter in SK-MEL-5 – cell-based, luciferase, dry powder, set 9, MITF inhibitor project, dose response (AID 651588); type: functional
[5] = cytotoxicity in MITF-independent A375 cells – cell-based, CellTiter-Glo luminescence, dry powder, set 4, counter-screen for MITF inhibitor project, dose response (AID 624364); type: functional; details: A-375;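 note: A375 melanoma cells are MITF independent so this is a counter screen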
[6] = viability loss in MITF-independent A375 cells – cell-based, CellTiter-Glo luminescence, dry powder, set 7, counter-screen for MITF inhibitor project, dose response (AID 624490); type: functional; details: A-375
[7] = MITF Orthogonal Assay: MALME3 CTG Assay Measured in Cell-Based System Using Plate Reader - 2084-04_Inhibitor_Dose_DryPowder_Activity_Set6.; type: functional; details: MALME-3
[8] = growth inhibition of SK-MEL-5 melanoma cells – cell-based, CellTiter-Glo luminescence, dry powder, set 8, orthogonal assay for MITF inhibitor project, dose response (AID 651586); type: functional
[9] = growth inhibition of MALME3 cells – cell-based, CellTiter-Glo luminescence, dry powder, set 5, orthogonal assay for MITF inhibitor project, dose response (AID 651584); type: functional; details: MALME-3
[10] = cytotoxicity in melanoma parental cells – cell-based, CellTiter-Glo, dry powder, set 6, MITF inhibitor project, dose response (AID 624429); type: functional; details: SK-MEL-5
[11] = MITF Orthogonal Assay: SK-MEL-5 CTG Assay Measured in Cell-Based System Using Plate Reader - 2084-02_Inhibitor_Dose_DryPowder_Activity_Set5.; type: functional
[12] = MITF Measured in Cell-Based System Using Plate Reader - 2084-01_Inhibitor_Dose_DryPowder_Activity_Set6.; type: functional
[13] = MITF Measured in Cell-Based System Using Plate Reader - 2084-01_Inhibitor_Dose_DryPowder_Activity_Set7.; type: functional
[14] = melanocyte viability loss, MITF-dependent cells, cell-based, plate reader, dry powder, cytotoxicity control, dose response (AID 651920); type: functional
Large T antigen = Large T antigen (Simian virus 40, UniProt P03070); type: functional, Betapolyomavirus macacae;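 note: Confirmatory-stage PubChem screen for compounds that inhibit SV40 T antigen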
Caspase-6 = Caspase-6 (Homo sapiens, UniProt P55212); assay: inhibition of CASP6 peptide cleavage – biochemical, VEID-R110 fluorescence, cherry-pick, dose response (AID 720632)
[15] = HepG2 hepatoma cell viability loss – plate reader, dry powder, cytotoxicity control, dose response (AID 651947); type: functional, cell-based
Paired box protein Pax-8 = Paired box protein Pax-8 (Homo sapiens, UniProt Q06710); assay: PAX8 transcriptional activity inhibition in RMG-I – RMG-I cells, luciferase, cherry-pick, dose response (AID 687027); type: functional, cell-based;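 note: luciferase reporter driven by Pax8 target thyroperoxidase promoter measured by SteadyGlo luminescence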
[16] = toxicity toward immortalized ovarian surface epithelium – cell-based, plate reader, dry powder samples, cytotoxicity control for PAX8 inhibitor project, dose response (AID 743045); type: functional
[17] = OVCAR-3 cell viability loss – plate reader, dry powder samples, PAX8 inhibitor project, dose response (AID 743044); type: functional, cell-based
[18] = IGROV1 cell killing – plate reader, dry powder samples, PAX8 inhibitor project, dose response (AID 743043); type: functional, cell-based; details: IGROV-1
[19] = OVCAR8 cell viability loss – plate reader, dry powder samples, PAX8 project, dose response (AID 743197); type: functional, cell-based; details: OVCAR-8
[20] = rise of 2N DNA cells, HeLa – IC50, dose response (AID 1117349); type: functional, cell-based
[21] = CellTiter-Glo luminescence survival assay, SW480 colon tumor line, concentration-response curve, half-maximal inhibitory concentration (AID 1117338); type: functional
[22] = RKO cell viability reduction, dose response, CellTiter-Glo luminescence (AID 1117322); type: functional
[23] = cytotoxicity toward HCT116 cells – cell-based, CellTiter-Glo luminescence, IC50, dose response (AID 1117332); type: functional; details: HCT-116
[24] = SNU-C1 cell viability reduction, dose response, CellTiter-Glo luminescence (AID 1117323); type: functional, cell-based
[25] = cytotoxicity toward Colo320 cells – cell-based, CellTiter-Glo luminescence, IC50, dose response (AID 1117334); type: functional; details: COLO 320
[26] = rise of 4N DNA cells, HeLa – IC50, dose response (AID 1117351); type: functional, cell-based
[27] = cytotoxicity toward HT-29 cells – cell-based, CellTiter-Glo luminescence, IC50, dose response (AID 1117330); type: functional
[28] = Reduced DLD-1 viability, concentration-response, CellTiter-Glo luminescence (AID 1117352); type: functional
[29] = HCT116 cell viability decrease, GSK3B pretreatment – CellTiter-Glo, IC50, dose response (AID 1117339); type: functional; details: HCT-116

Caspase-6, sequence (P55212 24-179 limits assumed): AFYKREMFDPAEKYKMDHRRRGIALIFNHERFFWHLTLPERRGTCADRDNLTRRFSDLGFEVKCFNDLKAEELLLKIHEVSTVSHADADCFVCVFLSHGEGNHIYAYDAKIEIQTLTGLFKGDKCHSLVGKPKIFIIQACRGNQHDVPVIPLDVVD
Caspase-6, sequence (P55212 194-293 limits assumed): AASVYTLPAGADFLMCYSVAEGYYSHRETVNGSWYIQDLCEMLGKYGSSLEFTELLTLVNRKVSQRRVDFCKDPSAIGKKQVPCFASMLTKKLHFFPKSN
Paired box protein Pax-8, sequence (Q06710 whole entry): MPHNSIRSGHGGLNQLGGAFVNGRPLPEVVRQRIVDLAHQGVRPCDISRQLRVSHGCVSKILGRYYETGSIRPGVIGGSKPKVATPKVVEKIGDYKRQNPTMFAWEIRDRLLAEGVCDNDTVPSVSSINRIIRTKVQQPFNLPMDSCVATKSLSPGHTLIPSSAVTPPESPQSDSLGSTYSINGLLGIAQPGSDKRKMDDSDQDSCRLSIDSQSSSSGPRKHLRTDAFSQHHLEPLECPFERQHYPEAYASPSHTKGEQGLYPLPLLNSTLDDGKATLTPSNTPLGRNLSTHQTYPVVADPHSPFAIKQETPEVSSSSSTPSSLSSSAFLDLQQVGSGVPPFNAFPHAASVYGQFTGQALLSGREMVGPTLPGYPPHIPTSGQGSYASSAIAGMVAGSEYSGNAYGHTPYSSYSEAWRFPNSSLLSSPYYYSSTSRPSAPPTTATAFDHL
Endoplasmic reticulum aminopeptidase 1, sequence (Q9NZ08 whole entry): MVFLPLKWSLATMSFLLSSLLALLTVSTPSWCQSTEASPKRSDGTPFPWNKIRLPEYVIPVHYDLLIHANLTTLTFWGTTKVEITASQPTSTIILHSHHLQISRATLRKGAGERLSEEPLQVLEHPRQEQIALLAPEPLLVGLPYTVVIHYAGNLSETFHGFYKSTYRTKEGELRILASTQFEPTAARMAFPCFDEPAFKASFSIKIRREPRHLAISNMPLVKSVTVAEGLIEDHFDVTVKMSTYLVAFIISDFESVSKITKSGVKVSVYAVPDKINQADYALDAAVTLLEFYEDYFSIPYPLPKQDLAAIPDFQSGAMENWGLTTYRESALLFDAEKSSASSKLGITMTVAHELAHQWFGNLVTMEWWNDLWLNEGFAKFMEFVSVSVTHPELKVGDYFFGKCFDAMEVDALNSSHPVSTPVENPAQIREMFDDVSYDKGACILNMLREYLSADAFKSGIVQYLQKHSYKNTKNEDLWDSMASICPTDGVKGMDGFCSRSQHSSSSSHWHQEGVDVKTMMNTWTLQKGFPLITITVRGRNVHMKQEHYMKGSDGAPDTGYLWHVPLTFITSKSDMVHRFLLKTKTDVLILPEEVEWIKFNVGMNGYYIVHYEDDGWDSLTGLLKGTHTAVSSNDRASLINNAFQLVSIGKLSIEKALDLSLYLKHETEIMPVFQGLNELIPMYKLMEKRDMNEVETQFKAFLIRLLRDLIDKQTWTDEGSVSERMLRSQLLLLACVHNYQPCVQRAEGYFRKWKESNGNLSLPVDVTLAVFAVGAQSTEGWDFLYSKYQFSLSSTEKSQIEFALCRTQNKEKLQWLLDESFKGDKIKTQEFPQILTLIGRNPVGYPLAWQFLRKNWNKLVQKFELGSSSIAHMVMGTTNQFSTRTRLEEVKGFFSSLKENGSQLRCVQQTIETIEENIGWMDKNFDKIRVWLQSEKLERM
Large T antigen, sequence (P03070 whole entry): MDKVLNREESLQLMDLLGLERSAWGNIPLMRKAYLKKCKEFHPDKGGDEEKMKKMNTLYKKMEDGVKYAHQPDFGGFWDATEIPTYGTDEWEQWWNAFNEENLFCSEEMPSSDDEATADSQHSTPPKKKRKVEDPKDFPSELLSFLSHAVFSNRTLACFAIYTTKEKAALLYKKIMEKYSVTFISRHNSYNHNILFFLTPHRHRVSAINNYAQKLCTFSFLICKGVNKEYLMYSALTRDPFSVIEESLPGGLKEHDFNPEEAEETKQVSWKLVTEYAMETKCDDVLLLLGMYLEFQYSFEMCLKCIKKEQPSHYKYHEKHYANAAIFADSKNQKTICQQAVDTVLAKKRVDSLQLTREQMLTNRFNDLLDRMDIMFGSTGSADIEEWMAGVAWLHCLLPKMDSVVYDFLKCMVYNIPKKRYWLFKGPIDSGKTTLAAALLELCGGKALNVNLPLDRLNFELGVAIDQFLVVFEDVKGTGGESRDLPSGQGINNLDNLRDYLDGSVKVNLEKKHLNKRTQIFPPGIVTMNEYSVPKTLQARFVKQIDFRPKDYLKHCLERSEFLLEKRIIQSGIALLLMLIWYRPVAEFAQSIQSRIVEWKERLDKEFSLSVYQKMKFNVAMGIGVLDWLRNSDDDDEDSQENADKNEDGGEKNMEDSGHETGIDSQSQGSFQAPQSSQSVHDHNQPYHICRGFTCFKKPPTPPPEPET
Serine/threonine-protein phosphatase PP1-alpha catalytic subunit, sequence (P62136 whole entry): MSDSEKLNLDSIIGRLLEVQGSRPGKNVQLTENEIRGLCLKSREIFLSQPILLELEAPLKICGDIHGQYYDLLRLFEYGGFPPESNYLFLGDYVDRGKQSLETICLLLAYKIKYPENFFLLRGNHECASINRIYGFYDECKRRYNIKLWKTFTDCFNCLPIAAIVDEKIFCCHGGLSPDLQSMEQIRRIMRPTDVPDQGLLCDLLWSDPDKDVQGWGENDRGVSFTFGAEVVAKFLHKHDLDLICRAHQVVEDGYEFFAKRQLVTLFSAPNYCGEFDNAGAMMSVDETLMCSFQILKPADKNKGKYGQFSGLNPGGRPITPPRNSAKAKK

Q: With `CCCCCCC[C@H](N)[C@H](O)C(=O)N(C)[C@@H](CC[S+](C)[O-])C(=O)N[C@@H](Cc1ccc(O)cc1)C(=O)N[C@@H](Cc1ccc(O)cc1)C(=O)O` (stereo partly drawn) as the molecule, how does the IC50 (Aminopeptidase N) read?
A: 16.8 µM (active)

Q: And the IC50 [1]?
A: 0.227 µM (active)

Q: And the IC50 [2]?
A: 0.578 µM (active)

Q: What about the AC50 [3] of the same molecule?
A: 8.53 µM (active)

Q: For `O=C1C=C(NS(=O)(=O)c2ccccc2)C(=O)c2ccccc21`, which AC50 [4] is on record?
A: 13 µM (active)

Q: What about the AC50 [5] of the same molecule?
A: > 70 µM (inactive)

Q: What about the AC50 [6] of the same molecule?
A: > 70 µM (inactive)

Q: What about the AC50 [7] of the same molecule?
A: 21.3 µM (active)

Q: What about the AC50 [8] of the same molecule?
A: 18.4 µM (active)

Q: And the AC50 [9]?
A: 21.3 µM (active)

Q: What about the AC50 [10] of the same molecule?
A: 10.5 µM (active)

Q: And the AC50 [11]?
A: 10.3 µM (active)

Q: And the AC50 [12]?
A: 3.04 µM (active)

Q: What about the AC50 [13] of the same molecule?
A: 4.57 µM (active)

Q: And the AC50 [14]?
A: 59.4 µM (active)

Q: Which IC50 (Large T antigen) does the source give for `COc1ccc(Br)cc1C1CC(=O)N2CN(C)CSC2=C1C#N` (stereo not drawn) here?
A: 76.9 µM (active)

Q: And the AC50 (Caspase-6)?
A: 39.2 µM (active)

Q: With `FC(F)(F)c1ccc(CSc2nnc(-c3ccccc3)o2)cc1` as the molecule, how does the AC50 [15] read?
A: 0.223 µM (active)

Q: For `O=C(NC1CCCCC1)N1C[C@@H]2N[C@H](C1)[C@@H]2c1ccc(-c2ccc(F)cc2)cc1`, which AC50 (Paired box protein Pax-8) is on record?
A: 17.2 µM (active)

Q: And the AC50 [16]?
A: 45.7 µM (active)

Q: What about the AC50 [17] of the same molecule?
A: 22 µM (active)

Q: What about the AC50 [18] of the same molecule?
A: 63.7 µM (active)

Q: What about the AC50 [19] of the same molecule?
A: > 70 µM (inactive)

Q: Which IC50 [20] does the source give for `O=C(O)CN(CCN(CC(=O)O)CC(=O)O)CCN(CC(=O)O)CC(=O)O` [PENTETIC ACID] here?
A: > 10 µM (inactive)

Q: What about the IC50 [21] of the same molecule?
A: 3.14 µM (active)

Q: What about the IC50 [22] of the same molecule?
A: 2.96 µM (active)

Q: What about the IC50 [23] of the same molecule?
A: > 6.67 µM (inactive)

Q: And the IC50 [24]?
A: > 20 µM (inactive)

Q: And the IC50 [25]?
A: > 20 µM (inactive)

Q: What about the IC50 [26] of the same molecule?
A: > 10 µM (inactive)

Q: And the IC50 [27]?
A: > 20 µM (inactive)

Q: What about the IC50 [28] of the same molecule?
A: > 20 µM (inactive)

Q: And the IC50 [29]?
A: 0.896 µM (active)
